A short description of data set [1]: Selectivity index, ratio of cytotoxic effect against human MRC5 cells to cytotoxic effect against human Jurkat cells. It counts as toxicity, cell-based. The settings on record: MRC5 cells versus Jurkat cells, read-out: Selectivity Index.
Data set [2] can be described thus: Selectivity index, ratio of cytotoxic effect against human MRC5 cells to cytotoxic effect against human MOLT-4 cells.
Data set [3] is described as follows: Selectivity index, ratio of cytotoxic effect against human MRC5 cells to cytotoxic effect against human PANC-1 cells.
Data set [4] in a line: Selectivity index, ratio of cytotoxic effect against human MRC5 cells to cytotoxic effect against human SAOS-2 cells.
The nature of data set [5]: Selectivity index, ratio of cytotoxic effect against human MRC5 cells to cytotoxic effect against human A2780 cells. The settings on record: MRC5 cells versus A2780 cells, read-out: Selectivity Index. Type of data set: toxicity, cell-based.
Data set [6] is described as follows: Selectivity index, ratio of cytotoxic effect against human MRC5 cells to cytotoxic effect against human HeLa cells. Type of data set: toxicity, cell-based. As to conditions: MRC5 cells versus HeLa cells, read-out: Selectivity Index.
Data set [7] is described as follows: Selectivity index, ratio of cytotoxic effect against human MRC5 cells to cytotoxic effect against human MCF7 cells. Type of data set: toxicity, cell-based. As to conditions: MRC5 cells versus MCF7 cells, read-out: Selectivity Index.
The nature of data set [8]: Selectivity index, ratio of cytotoxic effect against human MRC5 cells to cytotoxic effect against human HT-29 cells. Type of data set: toxicity, cell-based. As to conditions: MRC5 cells versus HT-29 cells, read-out: Selectivity Index.
The nature of data set [9]: Selectivity index, ratio of cytotoxic effect against human MRC5 cells to cytotoxic effect against human A549 cells. It counts as toxicity, cell-based. The settings on record: MRC5 cells versus A549 cells, read-out: Selectivity Index.
Data set [10] relates to A549. Kind of data set: Cytotoxicity against human A549 cells measured after 72 hrs by MTT assay. Type of data set: functional, cell-based. The settings on record: A549, 72 h. On the technique in general: Formazan colour is commonly taken as a measure of viable cells.
The target of data set [11] is Acetylcholinesterase (Homo sapiens, UniProt P22303). Briefly: Inhibition of human AChE by Ellman's method. For orientation: DTNB colorimetry detects thiols as they appear.
Acetylcholinesterase, sequence (P22303 whole entry): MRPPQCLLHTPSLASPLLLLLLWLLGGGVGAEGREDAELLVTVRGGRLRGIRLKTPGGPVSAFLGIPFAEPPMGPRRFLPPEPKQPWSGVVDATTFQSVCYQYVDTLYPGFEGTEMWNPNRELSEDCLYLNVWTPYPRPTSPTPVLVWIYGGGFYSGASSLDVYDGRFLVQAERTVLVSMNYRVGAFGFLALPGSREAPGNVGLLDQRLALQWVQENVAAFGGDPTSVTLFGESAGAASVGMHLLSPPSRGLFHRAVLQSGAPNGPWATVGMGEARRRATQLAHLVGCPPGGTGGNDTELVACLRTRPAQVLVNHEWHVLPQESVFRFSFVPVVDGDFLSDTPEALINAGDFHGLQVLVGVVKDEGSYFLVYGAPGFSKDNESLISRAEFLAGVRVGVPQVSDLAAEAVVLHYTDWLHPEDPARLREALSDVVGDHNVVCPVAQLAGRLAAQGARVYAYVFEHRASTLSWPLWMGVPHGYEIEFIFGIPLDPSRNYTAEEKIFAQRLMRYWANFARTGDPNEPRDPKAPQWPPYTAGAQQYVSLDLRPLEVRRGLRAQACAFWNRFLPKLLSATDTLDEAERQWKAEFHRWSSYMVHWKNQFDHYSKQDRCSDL
For data set [12], the target named is Cholinesterase (Homo sapiens, UniProt P06276). Kind of data set: Inhibition of human BChE by Ellman's method.
Cholinesterase, sequence (P06276 whole entry): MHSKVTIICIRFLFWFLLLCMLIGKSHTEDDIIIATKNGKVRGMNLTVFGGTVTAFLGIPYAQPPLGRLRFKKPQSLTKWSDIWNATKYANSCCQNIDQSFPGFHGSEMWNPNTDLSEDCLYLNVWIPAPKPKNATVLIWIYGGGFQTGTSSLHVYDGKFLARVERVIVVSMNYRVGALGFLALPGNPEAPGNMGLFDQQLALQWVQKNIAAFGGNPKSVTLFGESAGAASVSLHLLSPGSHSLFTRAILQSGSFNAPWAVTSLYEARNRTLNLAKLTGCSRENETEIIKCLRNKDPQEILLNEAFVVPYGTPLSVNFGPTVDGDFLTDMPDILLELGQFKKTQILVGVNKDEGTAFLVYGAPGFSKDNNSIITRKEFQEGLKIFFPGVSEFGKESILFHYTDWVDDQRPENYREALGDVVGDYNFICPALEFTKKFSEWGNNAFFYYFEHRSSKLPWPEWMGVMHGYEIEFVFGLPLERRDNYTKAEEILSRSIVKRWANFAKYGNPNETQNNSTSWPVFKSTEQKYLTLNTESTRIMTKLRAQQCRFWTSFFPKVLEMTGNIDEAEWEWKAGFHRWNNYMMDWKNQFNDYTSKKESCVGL
In data set [13] the test system is KB. Briefly: Cytotoxicity against human KB cells. Type of data set: functional. The settings on record: read-out: ED50 (the source's name).

pIC50: −log10 of the molar value. Converted amounts (≈) assume the structure as drawn.

As for `CO[C@@H]1C=C[C@@]23c4cc5c(cc4[C@H](O)N(C[C@@H]2O)[C@H]3C1)OCO5`, the selectivity ratio in [1], in data set [5], in data set [6], in data set [7], in data set [8] and in data set [9] was 0.14 each time. Moreover, the “Selectivity Index” value in [2], in data set [3] and in data set [4] was 0.14 in each case.

As for `CO[C@H]1C=C[C@@]23c4cc5c(cc4CN(C[C@@H]2O)[C@H]3C1)OCO5`, the IC50 – broadly, the concentration at which inhibition is half-maximal – in data set [10] was 15.9 µg/mL (≈ 52.8 µM).

Turning to `COc1cc(-c2cccc3c2N(C)CC3)c(CN2CC[C@@]34C=C[C@H](O)C[C@@H]3Oc3c(OC)ccc(c34)C2)c(OC)c1OC`, the pIC50 (usually −log10 of the IC50, conventionally taken in molar units) in data set [11] is 4.73; in data set [12] it was 5.87.

Consider `COc1cc2c(cc1OC)[C@@]13C=CC(O)C[C@@H]1N(CC3)C2` (stereo partly specified), for which the EC50 in data set [13] came out at 0.51 µg/mL (≈ 1.77 µM).

As for `CO[C@@H]1C=C[C@@]23c4cc5c(cc4CN(C[C@@H]2O)[C@H]3C1)OCO5` [(+)-HAEMANTHAMINE], the selectivity ratio in data set [1], in [5], in [6], in data set [7], in [8] and in [9] was 0.05 each time. Also, the “Selectivity Index” value in [2], in data set [3] and in data set [4] was 0.05 throughout.

Consider `O[C@H]1[C@H]2c3cc4c(cc3CN3CCC(=C[C@@H]1O)[C@H]23)OCO4` [LYCORINE], for which the selectivity ratio in data set [1], in data set [5], in data set [6], in data set [7], in data set [8] and in [9] was 0.62 in each case. For the same compound, the “Selectivity Index” value in [2], in data set [3] and in data set [4] was 0.62 each time.
